# According to patent US9556179B2 (BRISTOL-MYERS SQUIBB COMPANY, priority 2012, dated 2017):
# Columns and labels:
# CK1ε = CK1ε (Homo sapiens (Human), UniProt P49674); assay: CK1ε kinase assay (Caliper LABCHIP electrophoretic separation of fluoresceinated peptide substrate and product); assay type: biochemical; details: 200 pM enzyme, 50 μM ATP, 22 hours at room temperature
# Outline: (§1)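 Compounds, taken from 10 mM DMSO stocks, are titrated at eleven concentrations. Kinase reactions proceed for 22 hours at room temperature and are quenched with EDTA. Substrate and product are resolved electrophoretically, and IC50 values are fitted by non-linear regression.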
# CK1δ = CK1δ (Homo sapiens (Human), UniProt P48730); assay: CK1δ kinase assay (Caliper LABCHIP electrophoretic separation of fluoresceinated peptide substrate and product); assay type: biochemical; details: 200 pM enzyme, 50 μM ATP, 22 hours at room temperature
# Outline: as §1
# Sequence of CK1δ (P48730 whole entry): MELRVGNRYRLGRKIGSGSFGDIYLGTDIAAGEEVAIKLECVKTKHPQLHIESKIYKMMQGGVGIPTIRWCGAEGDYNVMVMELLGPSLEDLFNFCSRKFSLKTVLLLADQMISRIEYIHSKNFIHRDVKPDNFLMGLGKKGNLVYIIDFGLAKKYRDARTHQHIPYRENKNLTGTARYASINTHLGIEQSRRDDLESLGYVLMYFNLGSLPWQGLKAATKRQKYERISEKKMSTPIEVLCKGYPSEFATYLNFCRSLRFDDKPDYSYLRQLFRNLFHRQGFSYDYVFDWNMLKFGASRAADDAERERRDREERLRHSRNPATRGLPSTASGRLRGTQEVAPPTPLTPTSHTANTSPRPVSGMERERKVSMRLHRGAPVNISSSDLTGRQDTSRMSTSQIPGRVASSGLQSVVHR
# Sequence of CK1ε (P49674 whole entry): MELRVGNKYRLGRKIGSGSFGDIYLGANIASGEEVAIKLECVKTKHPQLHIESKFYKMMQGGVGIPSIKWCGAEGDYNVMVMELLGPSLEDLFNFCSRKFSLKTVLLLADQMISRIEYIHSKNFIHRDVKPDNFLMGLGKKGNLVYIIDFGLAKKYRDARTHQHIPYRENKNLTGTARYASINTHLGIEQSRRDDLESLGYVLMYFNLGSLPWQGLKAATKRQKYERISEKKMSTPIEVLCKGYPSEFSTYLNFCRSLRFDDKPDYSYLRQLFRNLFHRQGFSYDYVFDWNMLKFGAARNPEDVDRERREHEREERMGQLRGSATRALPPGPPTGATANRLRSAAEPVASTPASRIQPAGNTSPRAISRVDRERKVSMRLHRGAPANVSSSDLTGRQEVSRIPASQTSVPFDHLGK
SMILES,IC50 (CK1ε) [nM],IC50 (CK1δ) [nM]
"O=C(Nc1cn2nc(-c3c(-c4ccc(F)cc4)nc(C4CC4)n3C3CCN(C4COC4)CC3)ccc2n1)c1ccnc(F)c1 [Compound 132, N-(6-(2-cyclopropyl-4-(4-fluorophenyl)-1-(1-(oxetan-3-yl)piperidin-4-yl)-1H-imidazol-5-yl)imidazo[1,2-b]pyridazin-2-yl)-2-fluoroisonicotinamide]",14.2,1.7
O=C(Nc1cn2nc(-c3c(-c4ccc(F)cc4)nc(C4CC4)n3C3CCN(CCN4CCOCC4)CC3)ccc2n1)c1ccnc(F)c1 [Compound 134],7.83,0.542
"O=C(Nc1cn2nc(-c3c(-c4ccc(F)cc4)nc(C4CC4)n3C3CCNCC3)ccc2n1)c1cccc(-c2cccnc2)c1 [Compound 135, N-(6-(2-cyclopropyl-4-(4-fluorophenyl)-1-(piperidin-4-yl)-1H-imidazol-5-yl)imidazo[1,2-b]pyridazin-2-yl)-3-(pyridin-3-yl)benzamide]",2.6,0.745
"N#CCCN1CCC(n2c(C3CC3)nc(-c3ccc(F)cc3)c2-c2ccc3nc(NC(=O)c4cccc(-c5cccnc5)c4)cn3n2)CC1 [Compound 136, N-(6-(1-(1-(2-cyanoethyl)piperidin-4-yl)-2-cyclopropyl-4-(4-fluorophenyl)-1H-imidazol-5-yl)imidazo[1,2-b]pyridazin-2-yl)-3-(pyridin-3-yl)benzamide]",8.9,0.514
"NCC(=O)N1CCC(n2c(C3CC3)nc(-c3ccc(F)cc3)c2-c2ccc3nc(NC(=O)c4cccc(-c5cccnc5)c4)cn3n2)CC1 [Compound 137, N-(6-(1-(1-(2-aminoacetyl)piperidin-4-yl)-2-cyclopropyl-4-(4-fluorophenyl)-1H-imidazol-5-yl)imidazo[1,2-b]pyridazin-2-yl)-3-(pyridin-3-yl)benzamide]",5.78,0.203
"Cc1nc(-c2ccc(F)cc2)c(-c2ccc3nc(NC(=O)c4ccnc(F)c4)cn3n2)n1C1CCN(C[C@@H](O)C(F)(F)F)CC1 [Compound 142, (R)-2-fluoro-N-(6-(4-(4-fluorophenyl)-2-methyl-1-(1-(3,3,3-trifluoro-2-hydroxypropyl)piperidin-4-yl)-1H-imidazol-5-yl)imidazo[1,2-b]pyridazin-2-yl)isonicotinamide]",2.55,0.414
"Cc1nc(-c2ccc(F)cc2)c(-c2ccc3nc(NC(=O)c4ccnc(F)c4)cn3n2)n1C1CCN(C[C@H](O)C(F)(F)F)CC1 [Compound 143, (S)-2-fluoro-N-(6-(4-(4-fluorophenyl)-2-methyl-1-(1-(3,3,3-trifluoro-2-hydroxypropyl)piperidin-4-yl)-1H-imidazol-5-yl)imidazo [1,2-b]pyridazin-2-yl)isonicotinamide]",0.656,0.112
"Cc1nc(-c2ccc(F)cc2)c(-c2ccc3nc(NC(=O)c4ccnc(F)c4)cn3n2)n1C1CCN(CCC(F)(F)F)CC1 [Compound 145, 2-fluoro-N-(6-(4-(4-fluorophenyl)-2-methyl-1-(1-(3,3,3-trifluoropropyl)piperidin-4-yl)-1H-imidazol-5-yl)imidazo[1,2-b]pyridazin-2-yl)isonicotinamide]",9.51,0.962
"Cc1nc(-c2ccc(F)cc2)c(-c2ccc3nc(NC(=O)c4ccnc(F)c4)cn3n2)n1C1CCN(C(=O)c2ccsn2)CC1 [Compound 147, 2-fluoro-N-(6-(4-(4-fluorophenyl)-1-(1-(isothiazole-3-carbonyl)piperidin-4-yl)-2-methyl-1H-imidazol-5-yl)imidazo[1,2-b]pyridazin-2-yl)isonicotinamide]",4.9,0.529
"O=C(Nc1cn2nc(-c3c(-c4ccc(F)cc4)ncn3C3CNC3)ccc2n1)c1ccnc(F)c1 [Compound 148, N-(6-(1-(azetidin-3-yl)-4-(4-fluorophenyl)-1H-imidazol-5-yl)imidazo[1,2-b]pyridazin-2-yl)-2-fluoroisonicotinamide]",9.87,0.608
"CN1CC(n2cnc(-c3ccc(F)cc3)c2-c2ccc3nc(NC(=O)c4ccnc(F)c4)cn3n2)C1 [Compound 149, 2-fluoro-N-(6-(4-(4-fluorophenyl)-1-(1-methylazetidin-3-yl)-1H-imidazol-5-yl)imidazo[1,2-b]pyridazin-2-yl)isonicotinamide]",2.84,2.19
"Cc1nc(-c2cccnc2)sc1C(=O)Nc1cn2nc(-c3c(-c4ccc(F)cc4)ncn3C3CNC3)ccc2n1 [Compound 153, N-(6-(1-(azetidin-3-yl)-4-(4-fluorophenyl)-1H-imidazol-5-yl)imidazo[1,2-b]pyridazin-2-yl)-4-methyl-2-(pyridin-3-yl)thiazole-5-carboxamide]",5.29,0.204
"Cc1nc(-c2cccnc2)sc1C(=O)Nc1cn2nc(-c3c(-c4ccc(F)cc4)ncn3C3CN(C)C3)ccc2n1 [Compound 154, N-(6-(4-(4-fluorophenyl)-1-(1-methylazetidin-3-yl)-1H-imidazol-5-yl)imidazo[1,2-b]pyridazin-2-yl)-4-methyl-2-(pyridin-3-yl)thiazole-5-carboxamide]",8.64,0.915
"Cc1nc(-c2cccnc2)sc1C(=O)Nc1cn2nc(-c3c(-c4ccc(F)cc4)ncn3C3CN(C(=O)CN)C3)ccc2n1 [Compound 156, N-(6-(1-(1-(2-aminoacetyl)azetidin-3-yl)-4-(4-fluorophenyl)-1H-imidazol-5-yl)imidazo[1,2-b]pyridazin-2-yl)-4-methyl-2-(pyridin-3-yl)thiazole-5-carboxamide]",0.976,0.249
"O=C(Nc1cn2nc(-c3c(-c4ccc(F)cc4)ncn3C3CNC3)ccc2n1)c1ccncc1 [Compound 157, N-(6-(1-(azetidin-3-yl)-4-(4-fluorophenyl)-1H-imidazol-5-yl)imidazo[1,2-b]pyridazin-2-yl)isonicotinamide]",9.93,0.587
"O=C(Nc1cn2nc(-c3c(-c4ccc(F)cc4)ncn3C3CN(CCO)C3)ccc2n1)c1ccncc1 [Compound 159, N-(6-(4-(4-fluorophenyl)-1-(1-(2-hydroxyethyl)azetidin-3-yl)-1H-imidazol-5-yl)imidazo[1,2-b]pyridazin-2-yl)isonicotinamide]",5.6,1.31

# Next, values leading:
IC50 (CK1ε) [nM],IC50 (CK1δ) [nM],SMILES
13.1,0.907,"O=C(Nc1cn2nc(-c3c(-c4ccc(F)cc4)nc(C4CC4)n3C3CCN(Cc4ccno4)CC3)ccc2n1)c1ccnc(F)c1 [Compound 133, N-(6-(2-cyclopropyl-4-(4-fluorophenyl)-1-(1-(isoxazol-5-ylmethyl)piperidin-4-yl)-1H-imidazol-5-yl)imidazo [1,2-b]pyridazin-2-yl)-2-fluoroisonicotinamide]"
11,1.56,"O=C(Nc1cn2nc(-c3c(-c4ccc(F)cc4)nc(C4CC4)n3C3CCN(Cc4ccon4)CC3)ccc2n1)c1cccc(-c2cccnc2)c1 [Compound 138, N-(6-(2-cyclopropyl-4-(4-fluorophenyl)-1-(1-(isoxazol-3-ylmethyl)piperidin-4-yl)-1H-imidazol-5-yl)imidazo[1,2-b]pyridazin-2-yl)-3-(pyridin-3-yl)benzamide]"
22.2,2.29,"Cc1nc(-c2ccc(F)cc2)c(-c2ccc3nc(NC(=O)c4ccnc(F)c4)cn3n2)n1C1CCN(CCCF)CC1 [Compound 140, 2-fluoro-N-(6-(4-(4-fluorophenyl)-1-(1-(3-fluoropropyl)piperidin-4-yl)-2-methyl-1H-imidazol-5-yl)imidazo[1,2-b]pyridazin-2-yl)isonicotinamide]"
16,1.03,"COCCN1CCC(n2c(C)nc(-c3ccc(F)cc3)c2-c2ccc3nc(NC(=O)c4ccnc(F)c4)cn3n2)CC1 [Compound 141, 2-fluoro-N-(6-(4-(4-fluorophenyl)-1-(1-(2-methoxyethyl)piperidin-4-yl)-2-methyl-1H-imidazol-5-yl)imidazo [1,2-b]pyridazin-2-yl) isonicotinamide]"
1.55,0.254,"Cc1nc(-c2ccc(F)cc2)c(-c2ccc3nc(NC(=O)c4ccnc(F)c4)cn3n2)n1C1CCN(CCC#N)CC1 [Compound 144, N-(6-(1-(1-(2-cyanoethyl)piperidin-4-yl)-4-(4-fluorophenyl)-2-methyl-1H-imidazol-5-yl)imidazo[1,2-b]pyridazin-2-yl)-2-fluoroisonicotinamide]"
24.8,2.24,"Cc1nc(-c2ccc(F)cc2)c(-c2ccc3nc(NC(=O)c4ccnc(F)c4)cn3n2)n1C1CCN(CCCC(F)(F)F)CC1 [Compound 146, 2-fluoro-N-(6-(4-(4-fluorophenyl)-2-methyl-1-(1-(4,4,4-trifluorobutyl)piperidin-4-yl)-1H-imidazol-5-yl)imidazo[1,2-b]pyridazin-2-yl)isonicotinamide]"
3.81,0.034,"O=C(Nc1cn2nc(-c3c(-c4ccc(F)cc4)ncn3C3CN(CCO)C3)ccc2n1)c1ccnc(F)c1 [Compound 150, 2-fluoro-N-(6-(4-(4-fluorophenyl)-1-(1-(2-hydroxyethyl)azetidin-3-yl)-1H-imidazol-5-yl)imidazo[1,2-b]pyridazin-2-yl)isonicotinamide]"
7.48,0.451,"Cc1nc(-c2cccnc2)sc1C(=O)Nc1cn2nc(-c3c(-c4ccc(F)cc4)ncn3C3CN(CCO)C3)ccc2n1 [Compound 155, N-(6-(4-(4-fluorophenyl)-1-(1-(2-hydroxyethyl)azetidin-3-yl)-1H-imidazol-5-yl)imidazo[1,2-b]pyridazin-2-yl)-4-methyl-2-(pyridin-3-yl)thiazole-5-carboxamide]"
2.73,0.854,"CN1CC(n2cnc(-c3ccc(F)cc3)c2-c2ccc3nc(NC(=O)c4ccncc4)cn3n2)C1 [Compound 158, N-(6-(4-(4-fluorophenyl)-1-(1-methylazetidin-3-yl)-1H-imidazol-5-yl)imidazo[1,2-b]pyridazin-2-yl)isonicotinamide]"
3.21,0.306,"O=C(Nc1cn2nc(-c3c(-c4ccc(F)cc4)ncn3CCN3CCOCC3)ccc2n1)c1ccncc1 [Compound 160, N-(6-(4-(4-fluorophenyl)-1-(2-morpholinoethyl)-1H-imidazol-5-yl)imidazo[1,2-b]pyridazin-2-yl)isonicotinamide]"
